According to patent publication US11167007B2, “FOXM1 modulators and uses thereof” (City of Hope, priority 2016, dated 2021):

Tests used:
AR = target: T1, AR (Homo sapiens, UniProt P10275); assay: FRET-based AR conformation change reporter (CARY) in HEK293 kidney cells; assay type: cell-based; design: Full length AR with cyan fluorescent protein (CFP) or yellow fluorescent protein (YFP) fused to either end (CARY); expressed in transfected cells
T1 sequence (P10275 1-920): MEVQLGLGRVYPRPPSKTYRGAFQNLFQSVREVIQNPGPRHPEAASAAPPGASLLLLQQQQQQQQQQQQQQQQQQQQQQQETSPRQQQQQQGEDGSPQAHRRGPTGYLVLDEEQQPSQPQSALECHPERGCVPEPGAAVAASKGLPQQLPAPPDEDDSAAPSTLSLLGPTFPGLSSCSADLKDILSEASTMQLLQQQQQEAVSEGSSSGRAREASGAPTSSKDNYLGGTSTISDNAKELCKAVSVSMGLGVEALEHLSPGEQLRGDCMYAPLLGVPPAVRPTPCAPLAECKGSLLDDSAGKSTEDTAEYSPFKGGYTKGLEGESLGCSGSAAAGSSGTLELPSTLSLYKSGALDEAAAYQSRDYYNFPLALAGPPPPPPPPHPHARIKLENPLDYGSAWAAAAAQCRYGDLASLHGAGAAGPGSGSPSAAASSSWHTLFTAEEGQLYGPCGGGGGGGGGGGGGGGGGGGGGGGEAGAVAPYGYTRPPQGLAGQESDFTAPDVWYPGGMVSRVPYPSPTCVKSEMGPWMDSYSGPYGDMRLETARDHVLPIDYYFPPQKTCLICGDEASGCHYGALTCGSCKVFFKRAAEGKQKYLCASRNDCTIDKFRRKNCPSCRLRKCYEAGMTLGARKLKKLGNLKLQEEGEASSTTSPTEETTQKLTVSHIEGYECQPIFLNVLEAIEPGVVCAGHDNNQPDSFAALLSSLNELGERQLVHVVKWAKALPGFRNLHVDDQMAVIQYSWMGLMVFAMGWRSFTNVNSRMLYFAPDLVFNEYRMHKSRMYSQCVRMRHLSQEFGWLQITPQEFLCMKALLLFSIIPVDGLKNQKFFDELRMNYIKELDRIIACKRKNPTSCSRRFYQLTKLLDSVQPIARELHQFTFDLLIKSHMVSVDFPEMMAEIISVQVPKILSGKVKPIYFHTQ
Procedure: Creation of stable C-AR-Y reporter cell lines. Cell lines listed above were either transfected with a plasmid or a virus containing the CFP-AR-YFP construct preceding an IRES and hygromycin resistance gene and clonal stable cell lines selected. Qualification criteria for the transfected cell lines were described by Jones et al, ACS Chem Biol, 3(7):412-8 (2008).
Screen for AR-modulators. Screening was performed essentially as described by Jones et al, ACS Chem Biol, 3(7):412-8 (2008). Briefly, C-AR-Y reporter GTI-7 were transferred to 96 well plates and treated with library compounds for 24 hours. […] The compounds to be tested were from the NCI/DTP Open Chemical Repository's Approved Oncology Drugs Set II, Diversity Set II and Mechanistic Set. […] After 24 hours, medium was aspirated and FRET was measured as previously described using a monochromator-based fluorescence plate reader (M1000, Tecan, Inc.). Jones et al, ACS Chem Biol, 3(7):412-8 (2008). […]
In order to identify potential cell-type selective AR modulators, the FRET-based assay of AR conformation change was utilized. […] This produces an accurate and quantifiable read-out of AR activity. […] Candidate hits were then further evaluated by dose response. […] In addition to FRET, AR transcriptional activity was also assessed in several cell lines by transfecting cells with a luciferase reporter driven by the human PSA promoter. […]

[1] = target: T2, AR with a 65 glutamine tract (disease associated) (Homo sapiens, UniProt P10275, INS80QQQQQQQQQQQQQQQQQQQQQQQQQQQQQQQQQQQQQQQQQQ); assay: Luciferase reporter assay in HEK293 cells transfected with ARQ65; assay type: cell-based; settings: HEK293, AR 65 glutamines, FIG. 2C
T2 construct: expressed in transfected cells; host or cells: HEK293
Excerpt: Luciferase Reporter Assay. Cells were transfected using Lipofectamine Plus (Invitrogen) with a normalization plasmid (pRL-SV40, Promega) and an androgen responsive plasmid (MMTV-luciferase or PSA-luciferase) as described in Jones et al, ACS Chem Biol, 3(7):412-8 (2008), and, where indicated, with an shRNA plasmid targeting FOXM1 (adapted for mouse FOXM1 sequence targeting) a scrambled control shRNA plasmid, or ARQ24 or ARQ65 plasmids. Christensen et al, PLoS One, 8(1):e54556 (2013). The following day, cells and drugs were distributed to 96-well plates. 24 hours later, luciferase activity was assessed by a dual luciferase assay kit (Promega) on the Tecan plate reader. Samples were run in quadruplicates and a Student's t test was performed to determine significance, where p<0.05 was considered significant.
SBMA is caused by the activity of polyglutamine-expanded AR, and experiments were conducted to investigate the effects of thiostrepton against polyglutamine-expanded AR. AR-negative HEK293 cells were transfected with plasmids encoding AR with a 24 glutamine tract (normal) or with a 65 glutamine tract (disease associated). The polyglutamine-expanded AR was less transcriptionally active than the normal AR, as has been previously documented for such constructs. Kazemi-Esfarjani et al, Hum Mol Genet, 4:523-527 (1995).

T2 sequence (P10275 with tags, fused parts or gaps with the stated changes): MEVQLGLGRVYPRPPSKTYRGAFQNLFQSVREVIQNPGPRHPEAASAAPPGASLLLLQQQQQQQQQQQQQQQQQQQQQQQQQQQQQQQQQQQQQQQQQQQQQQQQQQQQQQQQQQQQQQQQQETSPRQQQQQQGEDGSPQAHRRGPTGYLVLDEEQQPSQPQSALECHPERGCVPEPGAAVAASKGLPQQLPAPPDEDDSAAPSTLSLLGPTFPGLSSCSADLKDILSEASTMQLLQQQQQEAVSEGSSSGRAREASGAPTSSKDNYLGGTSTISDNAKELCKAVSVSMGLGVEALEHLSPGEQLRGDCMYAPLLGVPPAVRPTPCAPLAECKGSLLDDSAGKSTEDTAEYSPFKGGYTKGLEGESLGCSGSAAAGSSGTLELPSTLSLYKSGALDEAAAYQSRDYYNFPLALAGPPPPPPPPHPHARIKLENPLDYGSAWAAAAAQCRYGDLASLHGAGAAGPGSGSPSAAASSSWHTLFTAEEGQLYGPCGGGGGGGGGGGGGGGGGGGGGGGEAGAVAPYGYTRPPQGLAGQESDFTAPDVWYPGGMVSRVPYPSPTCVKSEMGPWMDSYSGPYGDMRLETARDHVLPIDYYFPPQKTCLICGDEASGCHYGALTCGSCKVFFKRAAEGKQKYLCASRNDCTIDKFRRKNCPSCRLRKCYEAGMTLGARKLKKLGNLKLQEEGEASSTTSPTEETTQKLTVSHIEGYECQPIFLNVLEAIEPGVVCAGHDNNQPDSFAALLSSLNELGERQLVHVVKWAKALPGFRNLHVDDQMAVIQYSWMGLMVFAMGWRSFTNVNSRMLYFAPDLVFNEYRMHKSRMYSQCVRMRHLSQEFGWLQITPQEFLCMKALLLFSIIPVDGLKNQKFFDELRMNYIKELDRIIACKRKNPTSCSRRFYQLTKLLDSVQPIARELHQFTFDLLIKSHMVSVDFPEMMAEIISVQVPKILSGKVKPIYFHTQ

Row | SMILES | AR inhibitor activity in words (AR) | inhibition of polyglutamine-expanded AR activity (luciferase) [1]
1 | C=C(NC(=O)C(=C)NC(=O)c1csc(C2=N[C@@H]3c4csc(n4)[C@H]4NC(=O)c5csc(n5)[C@H]([C@](C)(O)[C@@H](C)O)NC(=O)[C@H]5CSC(=N5)/C(=C/C)NC(=O)[C@H]([C@@H](C)O)NC(=O)c5csc(n5)[C@]3(CC2)NC(=O)[C@H](C)NC(=O)C(=C)NC(=O)C(=C)NC(=O)[C@H](C(C)C)N[C@@H]2C=Cc3c([C@H](C)O)cc(nc3[C@H]2O)C(=O)O[C@@H]4C)n1)C(N)=O [NSC285116, siomycin A] | some activity | 
2 | C=C(NC(=O)C(=C)NC(=O)c1csc(C2=N[C@@H]3c4csc(n4)[C@H]4NC(=O)c5csc(n5)[C@H]([C@](C)(O)[C@@H](C)O)NC(=O)[C@H]5CSC(=N5)/C(=C/C)NC(=O)[C@H]([C@@H](C)O)NC(=O)c5csc(n5)[C@]3(CC2)NC(=O)[C@H](C)NC(=O)C(=C)NC(=O)[C@H](C)NC(=O)[C@H]([C@@H](C)CC)N[C@@H]2C=Cc3c([C@H](C)O)cc(nc3[C@H]2O)C(=O)O[C@@H]4C)n1)C(N)=O [thiostrepton] |  | inhibited
